“Also recorded” adds a separate entry of the source. Read-outs that look alike come from different tables or passages of the source. Bridges are numbered along the chain shown (N, C = ends). Primed or numbered codes have the meaning given here. Where no end group is shown, it is not given here. [ ]: non-standard residue; d: D form. PEG2′ = two-unit polyethylene glycol spacer; PEG2″ = not defined here
How the values were obtained:
[1] = tested on: LOS purified from N. gonorrhoeae strain 15253; assay type: in vivo
mAb 2C7 = assay: Inhibition ELISA: inhibition of mAb 2C7 binding to immobilized gonococcal LOS; conditions: for comparative ability to inhibit mAb 2C7 binding to LOS (antigenicity): ranking within the set of peptides tested
Source text: FIGS. 1A-1B show the structure and characterization of one of the peptide mimics described herein (also referred to as TMCP2). […] The 2C7 mimitope is indicated in shown as the sequence “H2C-CO-GPIPVLDENGLFAPGPC” (SEQ ID NO: 1) Cyclization is maintained through a thioether bond. The reverse peptide mimic core is represented the schematic of the peptide mimic as “Ac-β-Ala-Glu[Glu-OH]2.” The reverse peptide mimic core links to each cyclic peptide through a lysine (K) residue.
In order to compare antigenicity of peptide mimic Core Peptide 2 (monomeric cyclic CP2) and composite TMCP2 compounds with LOS that expresses the 2C7 epitope, inhibition ELISA was performed using mAb 2C7 reacted with the individual compounds to assess inhibition of binding (residual binding) of mAb to LOS by each compound. Microtiter wells were coated with LOS (80 μg/ml in PBS) purified from strain FA1090. Wells were washed and blocked with PBS-0.05% Tween 20. mAb 2C7 (0.04 μg/ml) either alone or containing monomeric cyclic peptide CP2 (1.07 to 1070 μM) or composite TMCP2 (concentrations ranging from […]) was dispended into LOS coated wells. Residual binding of 2C7 mAb was measured with anti-mouse IgG conjugated to alkaline phosphatase. Bound IgG was quantitated using a mouse IgG standard curve and percent inhibition determined compared to reaction mixtures that […].
Attempts to measure mAb 2C7 (7) binding directly to immobilized peptide mimic Core Peptide 2 (abbreviated CP2 in FIG. 1A) and composite TMCP2 by ELISA were not successful. The possibility of poor capture of the peptides by the microtiter wells was considered and therefore used an ELISA to measure inhibition of binding (residual binding) of mAb 2C7 to immobilized gonococcal LOS that had been reacted with increasing concentrations of the peptides (FIG. 1B).

[2] = earlier peptide constructs, FIG. 18 and FIG. 19

## [Ac-(CGPIPVLDENGLFAPGPC)-K-OH]4 (Ac-CGPIPVLDENGLFAPGPCK-OH; disulfide 1-18; also: tetrameric reverse MAP core) [TMCP3, disulfide-cyclized peptides on reverse MAP core]
[1]; tetrapeptides 50 μg/dose plus Sigma MPL adjuvant, BALB/c, FIG. 10
  anti-LOS titers in immunization experiments: higher anti-LOS titers than TMCP4
mAb 2C7
  comparative ability to inhibit mAb 2C7 binding to LOS (antigenicity): bound best

## (CH2-CO-GPIPVLDENGLFAPGPC)-K-OH ({CH2CO}-GPIPVLDENGLFAPGPCK-OH; thioether N-17; SMILES CC[C@H](C)[C@@H]1NC(=O)[C@@H]2CCCN2C(=O)CNC(=O)CSC[C@@H](C(=O)N[C@@H](CCCCN)C(=O)O)NC(=O)[C@@H]2CCCN2C(=O)CNC(=O)[C@@H]2CCCN2C(=O)[C@H](C)NC(=O)[C@H](Cc2ccccc2)NC(=O)[C@H](CC(C)C)NC(=O)CNC(=O)[C@H](CC(N)=O)NC(=O)[C@H](CCC(=O)O)NC(=O)[C@H](CC(=O)O)NC(=O)[C@H](CC(C)C)NC(=O)[C@H](C(C)C)NC(=O)[C@@H]2CCCN2C1=O) [CP2]
mAb 2C7; mAb 2C7 0.04 μg/ml, LOS-coated wells, read-out: concentration giving 50% inhibition of mAb 2C7 binding to immobilized 15253 LOS
  IC50: 107 µM

## KIPVLDENGLFAP (SEQ ID NO: 3)-PEG2-KK (KIPVLDENGLFAP[PEG2′]KK) [Mod3]
mAb 2C7; listed as Mod 3
  comparative ability to inhibit mAb 2C7 binding to LOS (antigenicity): most antigenic

## KIPVLDENGLFAPAAAGGKIPVLDENGLFAP [Mod3 linear dimer #2]
[1]; earlier peptide constructs, FIG. 18 and FIG. 19, listed as 16
  immunogenicity in BALB/c mice (IgG against 2C7+ LOS by ELISA): non-immunogenic
[1]; earlier peptide constructs, FIG. 18 and FIG. 19, listed as Mod3 linear dimer with AAAGG (SEQ ID NO: 5) linker
  immunogenicity in BALB/c mice (IgG against 2C7+ LOS by ELISA): neither were immunogenic
mAb 2C7; listed as Mod3 linear dimer with AAAGG (SEQ ID NO: 5) linker
  comparative ability to inhibit mAb 2C7 binding to LOS (antigenicity): better than the molecule with the AG linker

## SGPIPVLDENGLFAPGPC)4(Lys)2Lys-β-Ala-COOH [Tetra MAP 1.2]
[1]; in vivo
  immunogenicity in BALB/c mice (IgG against 2C7+ LOS by ELISA): Neither compound was superior

## (KIPVLDENGLFAP-PEG2-KKC)4-Maleimide4-MAP4 (KIPVLDENGLFAP[PEG2″]KKC; also: four copies on a maleimide MAP4 core) [TetraMAP 3.2]
[1]; [2]
  immunogenicity in BALB/c mice (IgG against 2C7+ LOS by ELISA): poorly immunogenic

## KIPVLDENGLFAPGSKIPVLDENGLFAP [Mod3 linear dimer #1]
[1]; earlier peptide constructs, FIG. 18 and FIG. 19, listed as 15
  immunogenicity in BALB/c mice (IgG against 2C7+ LOS by ELISA): non-immunogenic
[1]; earlier peptide constructs, FIG. 18 and FIG. 19, listed as Mod3 linear dimer with GS linker
  immunogenicity in BALB/c mice (IgG against 2C7+ LOS by ELISA): neither were immunogenic

## KIPVLDENGLFAPGPC-D Lys-D Lys4-K2-K-MAP4 (not fully specified (C-terminus); also: four copies on a branched Lys (K2-K) MAP4 core) [TetraMAP 3.4]
[1]; [2]
  immunogenicity in BALB/c mice (IgG against 2C7+ LOS by ELISA): poorly immunogenic

## (CGPIPVLDENGLFAPGPC)4(Lys)2Lys-β-Ala-COOH [Tetra MAP 1.1]
[1]; in vivo
  immunogenicity in BALB/c mice (IgG against 2C7+ LOS by ELISA): Neither compound was superior; also recorded: elicited similar anti-LOS Ab levels as Tetra

## (KIPVLDENGLFAP-PEG2-KK)4-MAP4 [Tetra MAP 3.1]
[1]; in vivo
  immunogenicity in BALB/c mice (IgG against 2C7+ LOS by ELISA): poorly immunogenic

## KIPVLDENGLFAP-D Lys-D Lys4-K2-K-MAP4 (not fully specified (C-terminus); also: four copies on a branched Lys (K2-K) MAP4 core) [TetraMAP 3.3]
[1]; [2]
  immunogenicity in BALB/c mice (IgG against 2C7+ LOS by ELISA): poorly immunogenic

Reference: US12629410B2, “Multi-antigenic peptide mimics of gonococcal lipo-oligosaccharide (LOS) epitopes” (priority 2019, dated 2026)
